According to patent publication US5397780A, “Pyrroloazepine derivative” (Suntory Limited, priority 1993, dated 1995):

Experiments:
[1] = system: α1; test: Anti-α1 action: norepinephrine-induced tonic contraction of guinea pig thoracic aorta; design: species or system Hartley male guinea pig; conditions: contraction by 10^-5 M norepinephrine = 100%
Description: (§1) With respect to certain compounds of the present invention, their anti-α1 action and anti-serotonin (5-HT) action were investigated by the testing methods which will be described below.
The thoracic aorta of each Hartley male guinea pig (body weight: 300-500 g) was excised. A sample cut in a helical form was suspended under 1 g load in a Magnus cylinder filled with the Tyrode solution of 37° C. which had been saturated with a mixed gas consisting of 95% O2 +5% CO2. Using an isometric transducer ("TB-612J"/NIHON KOHDEN) and a pressure preamplifier ("AP-620G"/NIHON KOHDEN), variations in tension were measured. The measurement results were recorded on a thermal pen-writing recorder ("WT-647G"/NIHON KOHDEN).
Taking the tonic contraction induced by 10^-5 M norepinephrine (NE) as 100% the percent contractions upon addition of each test drug at 10^-8 and 10^-7 M were determined as anti-α1 action.

[2] = system: serotonin (5-HT); test: Anti-serotonin (anti-5-HT) action: serotonin-induced contraction of guinea pig superior mesenteric artery; design: species or system Hartley male guinea pig; conditions: contraction by 10^-5 M serotonin = 100%
Description: as §1
A sample cut in a helical form was suspended under 0.3 g load in a Magnus cylinder filled with the Tyrode solution of 37° C. which had been saturated with a mixed gas consisting of 95% O2 +5% CO2. Using an isometric transducer ("UL-10"/SHINKOH K.K.) and a pressure preamplifier ("DSA-605A"/SHINKOH K.K.), variations in tension were measured. The measurement results were recorded on a pen-writing recorder ("VP-6537A"/NATIONAL K.K.). Taking the contraction induced by 10^-5 M serotonin (5-HT) as 100% the percent contractions in the presence of each test drug at 10^-7 and 10^-6 M were determined as anti-5-HT action.

Compound: O=C1CCN(Cc2ccccc2)C(=O)c2c1ccn2CCCCCN1CCN(c2ccccc2)CC1 [Compound No. 20, 7-Benzyl-1-[5-(4-phenylpiperazin-1-yl)pentyl]6,7-dihydropyrrolo[2,3-c]azepine-4,8(1H,5H)-dione]
- Anti α1 action (% of Control), percent contraction ([1]; test drug 10^-7 M, 0.1 µM): 19.9 % of Control
- Anti α1 action (% of Control), percent contraction ([1]; test drug 10^-8 M, 0.01 µM): 49.2 % of Control
- Anti 5-HT action (% of Control), percent contraction ([2]; test drug 10^-6 M, 1 µM): 45.7 % of Control
- Anti 5-HT action (% of Control), percent contraction ([2]; test drug 10^-7 M, 0.1 µM): 54.5 % of Control

Compound: CN1CCC(O)c2ccn(CCCCN3CCN(c4ccccc4)CC3)c2C1=O (stereo not drawn) [Compound No. 24, 4-hydroxy-7-methyl-1-[4-(4-phenylpiperazin-1-yl)butyl]-4,5,6,7-tetrahydropyrrolo[2,3-c]azepin-8(1H)-one]
- Anti α1 action (% of Control), percent contraction ([1]; test drug 10^-7 M, 0.1 µM): 41.0 % of Control
- Anti α1 action (% of Control), percent contraction ([1]; test drug 10^-8 M, 0.01 µM): 90.3 % of Control
- Anti 5-HT action (% of Control), percent contraction ([2]; test drug 10^-6 M, 1 µM): 36.0 % of Control
- Anti 5-HT action (% of Control), percent contraction ([2]; test drug 10^-7 M, 0.1 µM): 78.3 % of Control

Compound: CN1CCC(=NO)c2ccn(CCCCN3CCN(c4ccccc4)CC3)c2C1=O [Compound No. 27, 4-Hydroxyimino-7-methyl-1-[4-(4-phenylpiperazin-1-yl)butyl]-4,5,6,7-tetrahydropyrrolo[2,3-c]azepin-8(1H)-one]
- Anti α1 action (% of Control), percent contraction ([1]; test drug 10^-7 M, 0.1 µM): 18.4 % of Control
- Anti α1 action (% of Control), percent contraction ([1]; test drug 10^-8 M, 0.01 µM): 74.2 % of Control
- Anti 5-HT action (% of Control), percent contraction ([2]; test drug 10^-6 M, 1 µM): 25.7 % of Control
- Anti 5-HT action (% of Control), percent contraction ([2]; test drug 10^-7 M, 0.1 µM): 69.8 % of Control

Compound: CN1CCC(=NO)c2ccn(CCCCN3CCN(c4ccc(F)cc4)CC3)c2C1=O [Compound No. 29, 4-Hydroxyimino-7-methyl-1-[4-[4-(4-fluorophenyl)piperazin-1-yl]butyl]-4,5,6,7-tetrahydropyrrolo[2,3-c]azepin-8(1H)-one]
- Anti α1 action (% of Control), percent contraction ([1]; test drug 10^-7 M, 0.1 µM): 39.5 % of Control
- Anti α1 action (% of Control), percent contraction ([1]; test drug 10^-8 M, 0.01 µM): 94.2 % of Control
- Anti 5-HT action (% of Control), percent contraction ([2]; test drug 10^-6 M, 1 µM): 12.0 % of Control
- Anti 5-HT action (% of Control), percent contraction ([2]; test drug 10^-7 M, 0.1 µM): 66.2 % of Control

Compound: CN1CCC(=NO)c2ccn(CCCCN3CCN(c4cccc(Cl)c4)CC3)c2C1=O [Compound No. 31, 1-[4-[4-(3-Chlorophenyl)piperazin-1-yl]butyl]-4-hydroxyimino-7-methyl-4,5,6,7-tetrahydropyrrolo[2,3-c]azepin-8(1H)-one]
- Anti α1 action (% of Control), percent contraction ([1]; test drug 10^-7 M, 0.1 µM): 19.4 % of Control
- Anti α1 action (% of Control), percent contraction ([1]; test drug 10^-8 M, 0.01 µM): 93.9 % of Control
- Anti 5-HT action (% of Control), percent contraction ([2]; test drug 10^-6 M, 1 µM): 69.0 % of Control
- Anti 5-HT action (% of Control), percent contraction ([2]; test drug 10^-7 M, 0.1 µM): 86.2 % of Control

Compound: COc1ccccc1N1CCN(CCCCCn2ccc3c2C(=O)N(Cc2ccccc2)CCC3=O)CC1 [Compound No. 36, 7-Benzyl-1-[5-[4-(2-methoxyphenyl)piperazin-1-yl]pentyl]-6,7-dihydropyrrolo[2,3-c]azepine-4,8(1H,5H)-dione]
- Anti α1 action (% of Control), percent contraction ([1]; test drug 10^-7 M, 0.1 µM): 21.4 % of Control
- Anti α1 action (% of Control), percent contraction ([1]; test drug 10^-8 M, 0.01 µM): 43.6 % of Control
- Anti 5-HT action (% of Control), percent contraction ([2]; test drug 10^-6 M, 1 µM): 61.8 % of Control
- Anti 5-HT action (% of Control), percent contraction ([2]; test drug 10^-7 M, 0.1 µM): 84.0 % of Control
